Laboratory results: patent US11986526B2, “Liquid protein formulations containing 4-ethyl-4-methylmorpholinium methylcarbonate (EMMC)” (Eagle Biologics, Inc., priority 2013, dated 2024)
“And” between values parts separate entries of the source, which are not always exact repeats. Equal values may be shown once.

Assays:
[1] = test system: aqueous solutions of biosimilar AVASTIN®; assay: Viscosity of concentrated aqueous solutions of biosimilar AVASTIN with ionic liquids (mVROC microfluidic viscometer); format: physicochemical; settings: 25° C., pH 7
Description: (§1) All viscosities of well-mixed aqueous mAb solutions were measured using either a mVROC microfluidic viscometer (RheoSense) or a DV2T cone and plate viscometer (Brookfield; “C & P”) after a 5 minute equilibration at 25 °C (unless otherwise indicated). The mVROC viscometer was equipped with an “A” or “B” chip, each manufactured with a 50 micron channel. Typically, 0.10 mL of protein solution was back-loaded into a gastight microlab instrument syringe (Hamilton; 100 μL), affixed to the chip, and measured at multiple flow rates, approximately 20%, 40%, and 60% of the maximum pressure for each chip. […] An average absolute viscosity and standard deviation was then calculated from at least these three measurements. The C & P viscometer was equipped with a CPE40 or CPE52 spindle (cone angle of 0.8° and 3.0°, respectively) and 0.50 mL samples were measured at multiple shear rates between 2 and 400 s^−1. […] An extrapolated zero-shear viscosity was then determined from a plot of dynamic viscosity versus shear rate for the samples measured on a DV2T cone and plate viscometer. The extrapolated zero-shear viscosities reported are the average and standard deviation of at least three measurements.
(§2) First, Polysorbate 20 was removed using DETERGENT-OUT® TWEEN Medi Columns (G-Biosciences). […] The dried protein cakes, containing protein and buffer salts or viscosity-reducing ionic liquid, were reconstituted to a final volume of approximately 0.10-1.30 mL. […] Then, an appropriate amount of viscosity-reducing ionic liquid solution (pH 7.0) was added to each aliquot such that upon reconstitution with water, the final excipient concentration was 0.1-0.5 M. The protein solutions were then freeze-dried. The dried protein cakes, containing protein and viscosity-reducing ionic liquid (and a negligible amount of buffer salts) were reconstituted to a final volume of approximately 0.1 mL and viscosity-reducing ionic liquid concentration as indicated in the tables below. The final concentration of mAb in solution was determined by light absorbance at 280 nm using an experimentally determined extinction coefficient of 1.7 L/g·cm and viscosities reported were measured on a RheoSense mVROC microfluidic viscometer.

[2] = test system: aqueous solutions of HERCEPTIN®; assay: Viscosity of concentrated aqueous solutions of HERCEPTIN with ionic liquids (mVROC microfluidic viscometer); format: physicochemical; settings: for Viscosity: 25° C., pH 7
Excerpt: The protein was formulated either with phosphate buffer or with various viscosity-reducing ionic liquids at concentrations in the table listed below.

[3] = test system: aqueous solutions of TYSABRI®; assay: Viscosity of concentrated aqueous solutions of TYSABRI with excipients (mVROC microfluidic viscometer); format: physicochemical; settings: for Viscosity: 25° C., pH 7
Description: as §1
The dried protein cakes, containing protein and buffer salts or viscosity-reducing ionic liquid, were reconstituted to a final volume of approximately 0.10-1.30 mL. […] Then, an appropriate amount of viscosity-reducing ionic liquid solution (pH 7.0) was added to each aliquot such that upon reconstitution with water, the final excipient concentration was 0.1-0.5 M. The protein solutions were then freeze-dried. The dried protein cakes, containing protein and viscosity-reducing ionic liquid (and a negligible amount of buffer salts) were reconstituted to a final volume of approximately 0.1 mL and viscosity-reducing ionic liquid concentration as indicated in the tables below. The final concentration of mAb in solution was determined by light absorbance at 280 nm using an experimentally determined extinction coefficient of 1.7 L/g·cm and viscosities reported were measured on a RheoSense mVROC microfluidic viscometer.
(§3) Viscosities were measured using a RheoSense mVROC microfluidic viscometer equipped with an “A” or “B” chip.

[4] = test system: aqueous solutions of VECTIBIX®; assay: Viscosity of concentrated aqueous solutions of VECTIBIX with and without BIM (mVROC microfluidic viscometer); format: physicochemical; settings: 0.50M BIM, 25° C., pH 7
[5] = test system: aqueous solutions of REMICADE®; assay: Viscosity of concentrated aqueous solutions of REMICADE with and without BIM (mVROC microfluidic viscometer); format: physicochemical
Description: A commercially-obtained biosimilar AVASTIN® containing pharmaceutical excipients (Polysorbate 20, phosphate and citrate buffers, mannitol, and NaCl) was purified. […] For samples containing 4-ethyl-4-methylmorpholinium methyl carbonate (EMMC), protein was thoroughly buffer exchanged into 2 mM PB (pH 7.0). For samples buffer exchanged into 20 mM PB (PB control samples) or 20 mM viscosity-reducing ionic liquid, the collected protein solution was freeze-dried. […] Samples buffer exchanged into 2 mM PB were first aliquoted.

[6] = test system: Sprague-Dawley rats; assay: Subcutaneous injection toxicity and irritation study (Draize evaluation scores, microscopic examination of injection sites); format: in vivo, rat
Description: Clinical observations were recorded for any pharmaco-toxicological signs at pre-dose, immediately post-dose, at 1 and 4 hours (±15 minutes) post-dose, and daily thereafter. Irritation, if any, at injection sites was scored using the Draize evaluation scores pre-dose, immediately post-dose, at 1 hour (±15 minutes) post dose, and prior to sacrifice.

[7] = test system: aqueous solutions of biosimilar ERBITUX®; assay: Viscosity of concentrated aqueous solutions of biosimilar ERBITUX at various BIM concentrations (mVROC microfluidic viscometer); format: physicochemical; settings: for Viscosity: 25° C., pH 7
Description: All viscosities of well-mixed aqueous mAb solutions were measured using either a mVROC microfluidic viscometer (RheoSense) or a DV2T cone and plate viscometer (Brookfield; “C & P”) after a 5 minute equilibration at 25 °C (unless otherwise indicated). The mVROC viscometer was equipped with an “A” or “B” chip, each manufactured with a 50 micron channel. Typically, 0.10 mL of protein solution was back-loaded into a gastight microlab instrument syringe (Hamilton; 100 μL), affixed to the chip, and measured at multiple flow rates, approximately 20%, 40%, and 60% of the maximum pressure for each chip. […] An average absolute viscosity and standard deviation was then calculated from at least these three measurements. The C & P viscometer was equipped with a CPE40 or CPE52 spindle (cone angle of 0.8° and 3.0°, respectively) and 0.50 mL samples were measured at multiple shear rates between 2 and 400 s^−1. Specifically, samples were measured for 30 seconds each at 22.58, 24.38, 26.25, 28.13, 30, 31.88, 45, 67.5, 90, 112.5, 135, 157.5, 180, 202.5, 247, 270, 292.5, 315, 337.5, 360, 382, 400 s^−1, starting at a shear rate that gave at least 10% torque, and continuing until instrument torque reached 100%. An extrapolated zero-shear viscosity was then determined from a plot of dynamic viscosity versus shear rate for the samples measured on a DV2T cone and plate viscometer. The extrapolated zero-shear viscosities reported are the average and standard deviation of at least three measurements.
as §2, §3

[8] = test system: aqueous solutions of biosimilar RITUXAN®; assay: Viscosity of concentrated aqueous solutions of biosimilar RITUXAN with BIM (mVROC microfluidic viscometer); format: physicochemical; settings: 25° C., pH 7
[9] = test system: respiratory syncytial virus infection; settings: two Phase III clinical trials, pediatric population; cited from earlier work
[10] = studies evaluating long-term clinical outcomes; cited from earlier work
[11] = [IL] 0.5 M, [Protein] 230 mg/mL

4-ethyl-4-methylmorpholinium methylcarbonate [EMMC]
Viscosity ([1]; [IL] 0.4 M, [Protein] 217 mg/mL): 38.7 ± 0.3 cP | Viscosity reduction ([2]; 0.10 M EMMC): ~3 fold | Viscosity ([2]; [IL] 0.10 M, [Protein] 253 mg/mL): 60.2 ± 4.3 cP | Viscosity reduction ([3]; 0.10 M EMMC): up to 7 fold | Viscosity ([3]; [IL] 0.1 M, [Protein] 232 mg/mL): 24.7 ± 0.3 cP

Cl.N=C(N)NCCC[C@H](N)C(=O)O [Arg HCl, Arginine-HCl, reference compound]
Viscosity ([3]; [IL] 0.25 M, [Protein] 228 mg/mL): 37 ± 0.1 cP

CCCCn1cc[n+](CCCCS(=O)(=O)[O-])c1 [BIM, 4-(3-butyl-1-imidazolio)-1-butane sulfonate]
Viscosity ([4]; VECTIBIX ® 233 ± 4 mg/mL): 51.1 ± 3.7 cP | Viscosity ([4]; VECTIBIX ® 291 ± 3 mg/mL): 170 ± 2 cP | Viscosity ([5]; 0.50M BIM, REMICADE ® 222 ± 6 mg/mL, 25° C., pH 7): 71.2 ± 2.9 cP | Viscosity reduction ([5]; 0.50 M BIM, maximum over the proteins examined (REMICADE and VECTIBIX)): up to 22 fold | Observed consequences of injections compared with saline ([6]; 0.5 mL of 0.25 M BIM subcutaneously vs phosphate-buffered saline, throughout the study): macroscopically similar | Irritation at injection sites ([6]; 0.5 mL of 0.25 M BIM subcutaneously, 1-3 daily injections): no irritation to slight irritation | Edema scores (Draize) at injection sites ([6]; 0.5 mL of 0.25 M BIM subcutaneously, 1-3 daily injections, various time points): 0-2 | Microscopic examination of injection sites ([6]; 0.5 mL of 0.25 M BIM subcutaneously, no longer evident by day 4): very minor, clinically insignificant, irritative effect | Viscosity ([7]; [BIM] 0.4 M, [biosimilar ERBITUX ®] 270 mg/mL): 86.7 ± 2.1 cP | Viscosity ([7]; [BIM] 0.5 M, [biosimilar ERBITUX ®] 257 mg/mL): 75.0 ± 0.3 cP | Viscosity ([7]; [BIM] 0.75 M, [biosimilar ERBITUX ®] 263 mg/mL): 148 ± 2 cP | Viscosity ([7]; [BIM] 1.0 M, [biosimilar ERBITUX ®] 279 mg/mL): 145 ± 2 cP | Viscosity ([7]; [BIM] […], [biosimilar ERBITUX ®] 267 mg/mL): 347 ± 5 cP | Dependence of viscosity-lowering effect on BIM concentration ([7]; various concentrations of BIM, 0.3-[…]): dose dependent manner up to about 0.50 M | Viscosity ([1]; [IL] 0.2 M, [Protein] 215 mg/mL): 61.8 ± 0.3 cP | Viscosity ([1]; [IL] 0.4 M, [Protein] 215 mg/mL): 47.3 ± 2.3 cP | Viscosity ([1]; [IL] 0.5 M, [Protein] 215 mg/mL): 41.9 ± 0.8 cP | Viscosity ([2]; [IL] 0.40 M, [Protein] 223 mg/mL): 43.8 ± 0.4 cP | Viscosity ([8]; 0.40M BIM, [Protein] 191 ± 2 mg/mL): 43.9 ± 1.6 cP | Viscosity ([8]; 0.40M BIM, [Protein] 203 ± 4 mg/mL): 65.4 ± 0.4 cP | Viscosity ([8]; 0.40M BIM, [Protein] 213 ± 4 mg/mL): 75.4 ± 1.0 cP | Viscosity ([8]; 0.50M BIM, [Protein] 213 ± 4 mg/mL): 83.9 ± 0.8 cP | Viscosity ([3]; [IL] 0.4 M, [Protein] 234 mg/mL): 43.6 ± 1.1 cP

CCCCn1cc[n+](C)c1.CS(=O)(=O)[O-] [BMI Mes, 1-butyl-3-methylimidazolium methanesulfonate]
Viscosity ([1]; [IL] 0.4 M, [Protein] 214 mg/mL): 36.3 ± 0.2 cP | Viscosity ([1]; [IL] 0.4 M, [Protein] 229 mg/mL): 69.2 ± 5.2 cP | Viscosity ([1]; [IL] 0.5 M, [Protein] 221 mg/mL): 46.5 ± 1.7 cP | Viscosity [1, 11]: 82.0 ± 3.0 cP | Viscosity ([2]; [IL] 0.40 M, [Protein] 227 mg/mL): 47.8 ± 1.0 cP | Viscosity ([3]; [IL] 0.4 M, [Protein] 232 mg/mL): 35.2 ± 5.0 cP

CCCC[N+]1(C)CCCC1.[Cl-] [BMP Chloride, 1-butyl-1-methylpyrrolidinium chloride]
Viscosity ([1]; [IL] 0.4 M, [Protein] 227 mg/mL): 63.0 ± 8.4 cP | Viscosity [1, 11]: 60.8 ± 0.1 cP | Viscosity ([2]; [IL] 0.40 M, [Protein] 210 mg/mL): 55.6 ± 2.0 cP | Viscosity ([2]; [IL] 0.40 M, [Protein] 244 mg/mL): 99.2 ± 2.2 cP | Viscosity ([3]; [IL] 0.4 M, [Protein] 249 mg/mL): 42.7 ± 1.9 cP

palivizumab: humanized mAb against an epitope in the A antigenic site of the F protein of respiratory syncytial virus
Reduction of the risk of hospitalization due to respiratory syncytial virus infection [9]: 55% and 45%

vedolizumab: mAb being developed by Millennium Pharmaceuticals for ulcerative colitis and Crohn's disease
Patients achieving clinical remission [10]: ~60%
